From patent US20240150377A1, “MODULATORS OF CYSTIC FIBROSIS TRANSMEMBRANE CONDUCTANCE REGULATOR” (VERTEX PHARMACEUTICALS INCORPORATED, priority 2020, published 2024) come the findings set out here.

pEC50: −log10 of the molar value. Read-outs that look alike come from different tables or passages of the source.

In the experiment the target is T1, CFTR (Homo sapiens, UniProt P13569, DEL508-508).
T1 construct: endogenous in cells; host or cells: primary human bronchial epithelial cells from CF subjects (F508del/MF-HBE), differentiated at air-liquid interface
In words: HBE assay: Ussing chamber assay of CFTR-mediated short-circuit currents. Type of experiment: cell-based. Particulars: for pEC50: read-out: HBE EC50. In outline: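 CFTR-mediated Isc (μA/cm²) equals the peak response to apical 20 μM forskolin minus the residual after a 20 μM each BPO/GlyH-101/CFTR inhibitor 172 cocktail, recorded in Ussing chambers at Vhold 0 mV, 37 °C, pH 7.4, with 30 μM apical amiloride. Cells were F508del/MF HBE cultures preincubated 18-24 h with corrector (concentration range or 10 μM) plus 1 μM ivacaftor in 20% human serum.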

[1] abbreviates: Table 10, read-out: HBE Max activity (%).
Setting [2] is: Table 11, read-out: HBE Max Activity (%).
The mark [3] stands for this setting: Table 12, at 10 μM, read-out: HBE Activity at 10 μM (%).
[4] abbreviates: Table 10, at 10 μM, read-out: HBE activity at 10 (μM) (%).
Where [5] appears, read: Table 13, at 10 μM, read-out: HBE Activity at 10 μM (%).
Where [6] appears, read: Table 12, read-out: HBE Max Activity (%).
Where [7] appears, read: HBE assay, 10 μM, read-out: HBE Activity at 10 μM (%).
The mark [8] stands for this setting: HBE assay, read-out: HBE Max activity (%).

T1 sequence (P13569 with tags, fused parts or gaps DEL508-508): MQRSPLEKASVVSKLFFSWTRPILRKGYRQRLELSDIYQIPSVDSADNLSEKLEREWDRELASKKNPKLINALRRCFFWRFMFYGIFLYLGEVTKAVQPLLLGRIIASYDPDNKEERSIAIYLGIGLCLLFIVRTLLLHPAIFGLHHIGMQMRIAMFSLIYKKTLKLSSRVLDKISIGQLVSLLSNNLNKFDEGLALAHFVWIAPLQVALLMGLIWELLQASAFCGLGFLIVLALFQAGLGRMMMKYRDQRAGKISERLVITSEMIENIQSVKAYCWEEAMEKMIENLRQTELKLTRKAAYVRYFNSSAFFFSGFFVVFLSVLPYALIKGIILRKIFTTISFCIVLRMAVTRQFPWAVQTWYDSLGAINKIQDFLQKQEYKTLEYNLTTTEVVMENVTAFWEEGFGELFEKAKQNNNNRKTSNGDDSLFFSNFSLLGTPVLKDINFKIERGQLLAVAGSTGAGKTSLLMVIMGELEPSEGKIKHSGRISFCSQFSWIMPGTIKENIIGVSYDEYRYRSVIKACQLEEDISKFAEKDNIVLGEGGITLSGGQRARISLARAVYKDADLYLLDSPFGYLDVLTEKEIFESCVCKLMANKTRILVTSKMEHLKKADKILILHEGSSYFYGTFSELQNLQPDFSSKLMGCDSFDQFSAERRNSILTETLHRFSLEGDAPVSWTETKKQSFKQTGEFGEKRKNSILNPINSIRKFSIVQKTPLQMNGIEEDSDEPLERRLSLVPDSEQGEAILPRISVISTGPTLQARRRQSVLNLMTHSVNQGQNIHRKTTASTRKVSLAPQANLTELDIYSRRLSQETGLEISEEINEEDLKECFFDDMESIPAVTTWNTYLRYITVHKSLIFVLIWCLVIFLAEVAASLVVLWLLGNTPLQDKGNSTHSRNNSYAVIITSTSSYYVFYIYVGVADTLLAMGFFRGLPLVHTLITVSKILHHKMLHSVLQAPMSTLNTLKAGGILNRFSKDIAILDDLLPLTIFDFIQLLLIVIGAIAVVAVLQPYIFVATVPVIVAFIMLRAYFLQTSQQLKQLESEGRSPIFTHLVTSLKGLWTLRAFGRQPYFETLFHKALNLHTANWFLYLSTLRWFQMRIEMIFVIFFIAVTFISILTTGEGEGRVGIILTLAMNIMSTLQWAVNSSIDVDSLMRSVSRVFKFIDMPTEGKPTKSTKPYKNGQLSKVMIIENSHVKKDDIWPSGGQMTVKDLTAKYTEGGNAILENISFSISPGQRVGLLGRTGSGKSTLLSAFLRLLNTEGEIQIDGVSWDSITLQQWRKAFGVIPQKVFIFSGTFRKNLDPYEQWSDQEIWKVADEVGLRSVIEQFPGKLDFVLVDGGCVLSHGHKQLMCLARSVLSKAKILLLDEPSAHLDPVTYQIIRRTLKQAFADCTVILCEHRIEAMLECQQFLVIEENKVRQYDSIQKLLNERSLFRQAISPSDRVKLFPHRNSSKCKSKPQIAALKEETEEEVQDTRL

As to `Cc1cccc(C)c1-c1cc2nc(n1)NS(=O)(=O)c1cccc(c1)C(=O)N(Cc1ccc(N3CCOCC3)nc1)[C@H](CC(C)(C)C)CO2` [Compound 60, (11R)-6-(2,6-Dimethylphenyl)-11-(2,2-dimethylpropyl)-12-[(6-morpholino-3-pyridyl)methyl]-2,2-dioxo-9-oxa-2λ^6-thia-3,5,12,19-tetrazatricyclo[12.3.1.14,8]nonadeca-1(18),4(19),5,7,14,16-hexaen-13-one], where the note is “Table 10”, the pEC50 (as a rule, the EC50 on a negative log10 scale, so that one unit is a factor of ten) is over 6.00. The Emax under setting [1] is over 60%.

Regarding `Cc1cccc(C)c1-c1cc2nc(n1)NS(=O)(=O)c1cccc(c1)C(=O)N(Cc1cccc(N(C(C)C)C(C)C)n1)[C@H](CC(C)(C)C)CO2` [Compound 637], under “Table 11”, the negative logarithm of the EC50 (pEC50) was 4.52 to 5.52. Also, the Emax under setting [2] is over 60%.

Turning to `Cc1cccc(C)c1-c1cc2nc(n1)NS(=O)(=O)c1cccc(c1)C(=O)N(Cc1cccc(N3CCCC3)n1)[C@H](CC(C)(C)C)CO2` [Compound 630], the pEC50 (Table 11) is over 6.00. Besides, the Emax under setting [2] is over 60%.

With `CC(C)=C(C)c1cccc(CN2C(=O)c3cccc(c3)S(=O)(=O)Nc3nc(cc(-c4c(C)cccc4C)n3)OC[C@H]2CC(C)(C)C)n1` [Compound 577], the activation at 10 µM under setting [3] is over 600%.

Take `COc1ccc2nc3c(cc2c1)CN1C(O3)c2cccc(c2)S(=O)(=O)Nc2nc(cc(-c3c(C)cccc3C)n2)OC[C@H]1CC(C)(C)C` (some centres unmarked) [Compound 754]: the activation at 10 µM under setting [4] was over 60%.

On to `Cc1cccc(C)c1-c1cc2nc(n1)NS(=O)(=O)c1cccc(c1)C(=O)N(Cc1ccccc1-c1c[nH]nc1C)[C@H](CC(C)(C)C)CO2` [Compound 307], for which the activation at 10 µM under setting [4] was over 60%.

For the compound `COCCNc1cccc(CN2C(=O)c3cccc(c3)S(=O)(=O)Nc3nc(cc(-c4c(C)cccc4C)n3)OC[C@H]2CC(C)(C)C)n1` [Compound 475], the Emax under setting [1] is over 60%.

Turning to `Cc1cccc(C)c1-c1cc2nc(n1)NS(=O)(=O)c1cccc(c1)C(=O)N(CC(=O)NC1CCCCC1(C)C)[C@H](CC(C)(C)C)CO2` (some centres unmarked) [Compound 178], under setting [5], the activation at 10 µM was over 600%.

With `Cc1cccc(C)c1-c1cc2nc(n1)NS(=O)(=O)c1cccc(c1)C(=O)N(CC1CCC(O)(C(F)(F)F)CC1)[C@H](CC(C)(C)C)CO2` (some centres unmarked) [Compound 904], the pEC50 (Table 10) is over 6.00.

Take `Cc1cccc(C)c1-c1cc2nc(n1)NS(=O)(=O)c1cccc(c1)C(=O)N(Cc1ccnc(CC(C)C)n1)[C@H](CC(C)(C)C)CO2` [Compound 594]: the negative-log EC50 (pEC50) (Table 12) was over 6.00. Besides, the Emax under setting [6] was over 60%.

`Cc1cccc(C)c1-c1cc2nc(n1)NS(=O)(=O)c1cccc(c1)C(=O)N(CC(=O)N(C)CCN1CCOCC1)[C@H](CC(C)(C)C)CO2` [Compound 226]: under setting [5], the activation at 10 µM is over 600%.

Take `Cc1cccc(C)c1-c1cc2nc(n1)NS(=O)(=O)c1cccc(c1)C(=O)N(Cc1ncc(NC(=O)OC(C)C)cn1)[C@H](CC(C)(C)C)CO2` [Compound 1515]: the activation at 10 µM under setting [7] was over 60%.

For the compound `Cc1cccc(C)c1-c1cc2nc(n1)NS(=O)(=O)c1cccc(c1)C(=O)N(CC(=O)N(C)CC1CCOCC1)[C@H](CC(C)(C)C)CO2` [Compound 223], the activation at 10 µM under setting [5] was over 600%.

With `CC[C@@H](C)Oc1cnc(CN2C(=O)c3cccc(c3)S(=O)(=O)Nc3nc(cc(-c4c(C)cccc4C)n3)OC[C@H]2CC2CC2)nc1` [Compound 1447], the pEC50 (HBE assay) was over 6.00. The Emax under setting [8] was over 60%.

Regarding `Cc1cccc(C)c1-c1cc2nc(n1)NS(=O)(=O)c1cccc(c1)C(=O)N(CC(=O)N1CCC(OC(C)C)C1)[C@H](CC(C)(C)C)CO2` (some centres unmarked) [Compound 201], under setting [5], the activation at 10 µM was over 600%.

On to `Cc1cccc(C)c1-c1cc2nc(n1)NS(=O)(=O)c1cccc(c1)C(=O)N(Cc1cncc(N(C)C(C)C)n1)[C@H](CC(C)(C)C)CO2` [Compound 881], for which the pEC50 (Table 12) is over 6.00. Also, under setting [6], the Emax was over 60%.

Regarding `Cc1cccc(C)c1-c1cc2nc(n1)NS(=O)(=O)c1cccc(c1)C(=O)N(Cc1ncc3c(n1)CCOC3)[C@H](CC(C)(C)C)CO2` [Compound 1362], the activation at 10 µM under setting [7] is over 60%.

Take `Cc1cccc(C)c1-c1cc2nc(n1)NS(=O)(=O)c1cccc(c1)C(=O)N(Cc1c(F)cc(C3CCOCC3)cc1F)[C@H](CC(C)(C)C)CO2` [Compound 517]: the activation at 10 µM under setting [5] was over 600%.

`Cc1cccc(C)c1-c1cc2nc(n1)NS(=O)(=O)c1cccc(c1)C(=O)N(Cc1ncc(N3CC(F)C3)cn1)[C@H](CC(C)(C)C)CO2` [Compound 1498]: the activation at 10 µM under setting [7] was over 60%.

`Cc1cccc(C)c1-c1cc2cc(n1)NS(=O)(=O)c1cccc(c1)C(=O)N(Cc1cccc(N3CCC[C@H]3C)n1)[C@H](CC(C)(C)C)CO2` [Compound 526]: the pEC50 (Table 12) was over 6.00. For the same compound, the Emax under setting [6] was over 60%.

As to `Cc1cccc(C)c1-c1cc2nc(n1)NS(=O)(=O)c1cccc(c1)C(=O)N(Cc1cncc(N3CC[C@@H]4CCC[C@@H]43)n1)[C@H](CC(C)(C)C)CO2` [Compound 1542], the activation at 10 µM under setting [7] is over 60%.

`Cc1cccc(C)c1-c1cc2nc(n1)NS(=O)(=O)c1cccc(c1)C(=O)N(Cc1cccc(C(C)C(C)C)n1)[C@H](CC(C)(C)C)CO2` (some centres unmarked) [Compound 871]: the pEC50 (Table 12) was over 6.00. For the same compound, the Emax under setting [6] was over 60%.

Consider `Cc1cccc(C)c1-c1cc2nc(n1)NS(=O)(=O)c1cccc(c1)C(=O)N(Cc1ncc(N3CCC(F)(F)CC3)cn1)[C@H](CC(C)(C)C)CO2` [Compound 1443], for which the activation at 10 µM under setting [7] is over 60%.

In the case of `Cc1cccc(C)c1-c1cc2nc(n1)NS(=O)(=O)c1cccc(c1)C(=O)N(CC1CCC(O)(C(F)(F)F)CC1)[C@H](CC(C)(C)C)CO2` (some centres unmarked) [Compound 905], where the note is “Table 10”, the pEC50 was over 6.00. Further, the Emax under setting [1] was over 60%.

As to `Cc1cccc(C)c1-c1cc2nc(n1)NS(=O)(=O)c1cccc(c1)C(=O)N(CC1CCC(N3C[C@@H](C)O[C@@H](C)C3)CC1)[C@H](CC(C)(C)C)CO2` (some centres unmarked) [Compound 914], the pEC50 (Table 10) was over 6.00.

For the compound `Cc1cccc(C)c1-c1cc2nc(n1)NS(=O)(=O)c1cccc(c1)C(=O)N(Cc1ncccc1-c1c(C)n[nH]c1C)[C@H](CC(C)(C)C)CO2` [Compound 301], the pEC50 (Table 10) was over 6.00. Further, under setting [1], the Emax was over 60%.

With `Cc1cccc(C)c1-c1cc2nc(n1)NS(=O)(=O)c1cccc(c1)C(=O)N(Cc1cnc(C3CCCCC3)nc1)[C@H](CC(C)(C)C)CO2` [Compound 271], the negative-log EC50 (pEC50) (Table 12) is over 6.00. In addition, the Emax under setting [6] is over 60%.

Take `Cc1cccc(C)c1-c1cc2nc(n1)NS(=O)(=O)c1cccc(c1)C(=O)N(Cc1ncc(C3CC(C)(C)C3)cn1)[C@H](CC(C)(C)C)CO2` [Compound 158]: where the note is “Table 13”, the pEC50 is over 6.00. Besides, where the note is “Table 13, read-out: HBE Max Activity (%)”, the Emax was over 60%.

As to `Cc1cccc(C)c1-c1cc2nc(n1)NS(=O)(=O)c1cccc(c1)C1Oc3ccc4cccnc4c3CN1[C@H](CC(C)(C)C)CO2` (some centres unmarked) [Compound 751], the activation at 10 µM under setting [4] is over 60%.

For `Cc1cccc(C)c1-c1cc2nc(n1)NS(=O)(=O)c1cccc(c1)C(=O)N(Cc1ccccc1-c1c[nH]nc1C(F)(F)F)[C@H](CC(C)(C)C)CO2` [Compound 304], the activation at 10 µM under setting [4] is over 60%.

Consider `Cc1cccc(C)c1-c1cc2nc(n1)NS(=O)(=O)c1cccc(c1)C(=O)N(Cc1cnn(C)c1C)[C@H](CC(C)(C)C)CO2` [Compound 824], for which the activation at 10 µM under setting [4] was over 60%.

As for `Cc1cccc(C)c1-c1cc2nc(n1)NS(=O)(=O)c1cccc(c1)C(=O)N(Cc1nccc(C(C)(C)O)n1)[C@H](CC(C)(C)C)CO2` [Compound 813], where the note is “Table 11”, the pEC50 was over 6.00. In addition, the Emax under setting [2] was over 60%.

Consider `COCC(C)Oc1cnc(CN2C(=O)c3cccc(c3)S(=O)(=O)Nc3nc(cc(-c4c(C)cccc4C)n3)OC[C@H]2CC(C)(C)C)nc1` (some centres unmarked) [Compound 1344], for which the pEC50 (HBE assay) is over 6.00. The Emax under setting [8] was over 60%.

As to `Cc1cccc(C)c1-c1cc2nc(n1)NS(=O)(=O)c1cccc(c1)C(=O)N(Cc1nccc(N3CCC[C@H]3C)n1)[C@H](CC(C)(C)C)CO2` [Compound 618], the pEC50 (Table 11) was over 6.00. For the same compound, under setting [2], the Emax is over 60%.

`Cc1cccc(C)c1-c1cc2nc(n1)NS(=O)(=O)c1cccc(c1)C(=O)N(Cc1ncc(OC3CCCOC3)cn1)[C@H](CC(C)C)CO2` (some centres unmarked) [Compound 1433]: under setting [7], the activation at 10 µM is over 60%.

Regarding `Cc1cccc(C)c1-c1nc2nc(c1C)OC[C@@H](CC(C)(C)C)N(Cc1ncc(N(C)C)cc1N(C)C)C(=O)c1cccc(c1)S(=O)(=O)N2` [Compound 486], the activation at 10 µM under setting [4] is over 60%.

With `Cc1cccc(C)c1-c1cc2nc(n1)NS(=O)(=O)c1cccc(c1)C(=O)N(Cc1nccc(OC(C)C)n1)[C@H](CC(C)(C)C)CO2` [Compound 656], the pEC50 (Table 11) is over 6.00. In addition, under setting [2], the Emax is over 60%.

Consider `Cc1cccc(C)c1-c1cc2nc(n1)NS(=O)(=O)c1cccc(c1)C(=O)N(CC(=O)O)[C@H](CC(C)(C)C)CO2` [Compound 453], for which, where the note is “Table 12”, the pEC50 was 4.52 to 5.52. Moreover, under setting [6], the Emax is over 60%.

Turning to `Cc1cccc(C)c1-c1cc2nc(n1)NS(=O)(=O)c1cccc(c1)C(=O)N(Cc1nc(C(C)(C)C)cs1)[C@H](CC(C)(C)C)CO2` [Compound 702], the activation at 10 µM under setting [3] was over 600%.

For `Cc1cccc(C)c1-c1cc2nc(n1)NS(=O)(=O)c1cccc(c1)C(=O)N(Cc1ncc(N3CCC(C)(C)CC3)cc1F)[C@H](CC(C)(C)C)CO2` [Compound 522], the pEC50 (Table 12) is over 6.00. Besides, the Emax under setting [6] was over 60%.

Regarding `Cc1cccc(C)c1-c1cc2nc(n1)NS(=O)(=O)c1cccc(c1)C(=O)N(Cc1ncc(N3CCC(C)(O)C3)cn1)[C@H](CC(C)(C)C)CO2` (some centres unmarked) [Compound 553], under setting [3], the activation at 10 µM is over 600%.
